Reference: EP0845265A1, “MUCOSAL P[…] PHYSIOLOGICALLY ACTIVE PEPTIDE” (Asahi Kasei Kogyo Kabushiki Kaisha, priority 1995, dated 1997)
Counter-ions that a name gives are not always drawn.

Test: In vivo absorption of elcatonin by rats (nasal administration, serum level by RIA)
Parameters: species or system Wistar rats
Settings: diltiazem hydrochloride per se, without absorption promotor
Experimental: In vivo absorption of elcatonin by rats :
Wistar rats, male (Japan SLC, body weight 200 - 250 g), fasting overnight, 4 rats in a group, were anesthetized by pentobarbital (Nembutal inj. Dainippon Pharm. Co., Japan).
Polyethylene tube was inserted into the trachea by incised in the corvex. Tube was inserted into postnasal space after esophageal incision. Administration was conducted by pouring drug solution 25 µl prepared in use using micropipette into the right naris. Blood sample 200 µl was collected from femoral vein time dependently before and after administration of drug. Blood sample was centrifuged (15,000 rpm/10 min./5°C) and stored at -30 °C before analysis.
Elcatonin 20 units/ml (in physiological saline) 0.25 ml was subcutaneously administered for comparison with absorption rate (comparison 1).
Blood level was assayed by RIA.
Absorption rate is calculated by using area under the curve (AUC) in the comparison 1 from the following equation. Absorption rate (%) =(AUC (I.N.))/(AUC (S.C.))×(dose (S.C.))/(dose (I.N.))×100 [formula] wherein I. N. : nasal administraion and S.C. : subcutaneous administration. As clearly shown in Fig. 2, absorption of elcatonin was enhanced in above 2 fold through nasal mucosa by administering with absorption promotor sodium glycocholate and calciuim channel blocker as compared with sodium glycocholic acid per se.

Q: With `COc1ccc([C@@H]2Sc3ccccc3N(CCN(C)C)C(=O)[C@@H]2OC(C)=O)cc1` [diltiazem hydrochloride, Diltiazem hydrochloride] as the compound, how does the absorption promoting action read?
A: no absorption promoting action
